Results reported in article PMC11904604, “MRM-based LC-MS method for accurate C-peptide quantitation” (Journal of Mass Spectrometry and Advances in the Clinical …, 2025).

Assay: in vitro
Conditions: human, serum

CC(C)C[C@H](NC(=O)[C@H](C)NC(=O)[C@H](CC(C)C)NC(=O)[C@@H]1CCCN1C(=O)[C@H](CCC(N)=O)NC(=O)[C@H](CC(C)C)NC(=O)[C@H](CO)NC(=O)CNC(=O)[C@H](C)NC(=O)CNC(=O)[C@@H]1CCCN1C(=O)CNC(=O)CNC(=O)CNC(=O)[C@H](CC(C)C)NC(=O)[C@H](CCC(=O)O)NC(=O)[C@@H](NC(=O)[C@H](CCC(N)=O)NC(=O)CNC(=O)[C@@H](NC(=O)[C@H](CCC(N)=O)NC(=O)[C@H](CC(C)C)NC(=O)[C@H](CC(=O)O)NC(=O)[C@H](CCC(=O)O)NC(=O)[C@H](C)NC(=O)[C@@H](N)CCC(=O)O)C(C)C)C(C)C)C(=O)N[C@@H](CCC(=O)O)C(=O)NCC(=O)N[C@@H](CO)C(=O)N[C@@H](CC(C)C)C(=O)N[C@@H](CCC(N)=O)C(=O)O [C-peptide]
metabolised at 48 h, 0.53 nmol/L: 2.4% | metabolised at 48 h, 2.88 nmol/L: 6.3%
